How the values were obtained:
[1] = hydroxyl radical antioxidant capacity (HORAC) kit; format: biochemical; conditions: concentration of 100 μg/mL; FIG. 4
[2] = superoxide anion removal, SOD assay kit; format: biochemical; conditions: concentration of 100 μg/mL; FIG. 5
Experimental: The efficiency of Au NCs-NAC in removing superoxide anions at different concentrations ([…]) was determined using the SOD assay kit (Sigma-Aldrich, USA). The test was conducted according to the instructions provided by the manufacture.

[3] = ABTS free radical cation discoloration method; format: biochemical; conditions: concentration of […] (so in the source); absorbance at 734 nm; FIG. 6
Experimental: The test for eliminating ABTS (2,2′-azino-bis(3-ethylbenzothiazoline-6-sulfonic acid)) free radicals by Au NCs-NAC.
The free radicals eliminating ability of Au NCs-NAC was tested using the ABTS free radical cation discoloration method. ABTS (7 mM) was dissolved in water, and 2.45 mM potassium persulfate was added to react for 12 hours to produce ABTS free radical cations (⋅ABTS+). Then, the absorbance values of the pure ⋅ABTS+solution (AB) and the mixed solution of different concentrations (12.5-100 μg/mL) of Au NCs-NAC and ⋅ABTS+ were measured at 734 nm. The formula for calculating ABTS eliminating efficiency is [(AB AP)/AB]*100. All measurements were performed in triplicate.

[4] = tested on: TNF-α; test: in vitro anti-inflammatory study, TNF-α ELISA; format: cell-based; conditions: LPS 400 ng/ml stimulation, RAW264.7 macrophage supernatant, FIG. 9
Text: (§1) Embodiment 3: Au NCs-NAC cytotoxicity and protection of kidney cells by eliminating various reactive oxygen species/reactive nitrogen species, and the standard MTT method was used to evaluate the effect of Au NCs-NAC on the survival rate of 293T renal embryonic cells. Furthermore, ELISA (enzyme-linked immunosorbent assay) kits for TNF-α and IL-6 are adopted to evaluate the levels of inflammatory factors in the cells.
(§2) For in vitro anti-inflammatory studies, both macrophages and 293T renal embryonic cells were seeded into 96-well plates. Then, 293T renal embryonic cells were treated with 400 ng/ml lipopolysaccharide (LPS) for 1 h. Then, the supernatant of 293T renal embryonic cell culture was transferred to a 96-well plate to culture RAW264.7 macrophages overnight. Finally, the TNF-α/IL-6 ELISA kit was used to detect the concentrations of TNF-α and IL-6 in the RAW264.7 macrophage supernatant.

[5] = tested on: IL-6; test: in vitro anti-inflammatory study, IL-6 ELISA; format: cell-based; conditions: LPS 400 ng/ml stimulation, RAW264.7 macrophage supernatant, FIG. 10
Text: as §1, §2

[6] = tested on: glycerol-induced acute renal failure mice; test: glycerol-induced acute renal failure mice, serum creatinine and blood urea nitrogen; format: in vivo; conditions: 4 mg/kg injected 2 hours after glycerol, serum at 24 hours, versus phosphate buffer
Experimental: All experimental operations were performed in accordance with the animal use and care system approved by the Clinical Center Animal Care and Use Committee. Female athymic mice (six weeks, 20-25 g) were injected with 8 mL/kg 50% glycerol solution intramuscularly into the hind legs to establish a mice model of acute renal failure. After 2 hours, the small molecule drug acetylcysteine or Au NCs-NAC was injected.
Mice were randomly divided into 5 groups: (1) healthy mice injected with phosphate buffer; (2) healthy mice injected with Au NCs-NAC; (3) glycerol-induced acute renal failure mice injected with phosphate buffer; (4) glycerol-induced acute renal failure mice injected with Au NCs-NAC; (5) glycerol-induced acute renal failure mice injected with acetylcysteine in the same dose of Au NCs-NAC. Healthy mice and mice with glycerol-induced acute renal failure were euthanized 24 hours later. The blood of the mice was centrifuged to obtain serum, and the creatinine and blood urea nitrogen contents were measured. The phosphate buffer used for injection was 100 μL, the injection dose of Au NCs-NAC was 4 mg/kg, and the injection dose of acetylcysteine was 4 mg/kg.

## CC(=O)N[C@@H](CS)C(=O)O [acetylcysteine]
[1]
  hydroxyl radicals eliminated: 47.2%
[2]
  superoxide anions eliminated: 6%
[3]
  ⋅ABTS+ eliminated (ABTS eliminating efficiency): 68.9%
[4]
  production of inflammatory factor TNF-α: not able to achieve the same
[5]
  production of inflammatory factor IL-6: not able to achieve the same
[6]; FIG. 11
  serum blood urea nitrogen level: cannot effectively reduce
[6]; FIG. 12
  serum creatinine level: cannot effectively reduce

From patent US20260216112A1, “ACETYLCYSTEINE-STABILIZED GOLD NANOCLUSTERS FOR ACUTE KIDNEY INJURY, AND PREPARATION METHOD AND APPLICATION THEREOF” (priority 2021, published 2026)
